#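 Briefly, cells in 96-well plates were exposed to five compound concentrations for 48 h, and endpoints were estimated by linear interpolation. Here, GI50 denotes the concentration required for 50% inhibition of growth. TGI is the concentration that stops growth completely.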
# Assays:
# Assay in all cases: DTP human tumour cell line panel, 48 h
# [1] = tested on: 786-0 renal
# [2] = tested on: A498 renal
# [3] = tested on: A549 NSCLC
# [4] = tested on: ACHN renal
# [5] = tested on: BT-549 breast
# [6] = tested on: CAKI-1 renal
# [7] = tested on: COLO 205 colon
# [8] = tested on: DU-145 prostate
# [9] = tested on: EKVX NSCLC
# [10] = tested on: HCC-2998 colon
# [11] = tested on: HCT-116 colon
# [12] = tested on: HCT-15 colon
# [13] = tested on: HOP-92 NSCLC
# [14] = tested on: HS 578T breast
# [15] = tested on: HT29 colon
# [16] = tested on: IGROV1 ovarian
# [17] = tested on: KM12 colon
# [18] = tested on: LOX IMVI melanoma
# [19] = tested on: M14 melanoma
# [20] = tested on: MALME-3M melanoma
# [21] = tested on: MCF7 breast
# [22] = tested on: MDA-MB-231 breast
# [23] = tested on: MDA-MB-435
# [24] = tested on: NCI-H226 lung
# [25] = tested on: NCI-H23 lung
# [26] = tested on: NCI-H460 lung
# [27] = tested on: NCI-H522 lung
# [28] = tested on: NCI/ADR-RES ovarian
# [29] = tested on: OVCAR-3 ovarian
# [30] = tested on: OVCAR-4 ovarian
# [31] = tested on: OVCAR-5 ovarian
# [32] = tested on: OVCAR-8 ovarian
# [33] = tested on: PC-3 prostate
# [34] = tested on: RPMI-8226 leukemia
# [35] = tested on: RXF 393 renal
# [36] = tested on: SF-268 CNS
# [37] = tested on: SF-295 CNS
# [38] = tested on: SF-539 CNS
# [39] = tested on: SK-MEL-2 melanoma
# [40] = tested on: SK-MEL-28 melanoma
# [41] = tested on: SK-MEL-5 melanoma
# [42] = tested on: SK-OV-3 ovarian
# [43] = tested on: SN12C renal
# [44] = tested on: SNB-19 CNS
# [45] = tested on: SNB-75 CNS
# [46] = tested on: SW-620 colon
# [47] = tested on: T-47D breast
# [48] = tested on: TK-10 renal
# [49] = tested on: U251 CNS
# [50] = tested on: UACC-257 melanoma
# [51] = tested on: UACC-62 melanoma
# [52] = tested on: UO-31 renal
# [53] = tested on: CCRF-CEM leukemia
# [54] = tested on: HL-60(TB) leukemia
# [55] = tested on: HOP-62 NSCLC
# [56] = tested on: K-562 leukemia
# [57] = tested on: MOLT-4 leukemia
# [58] = tested on: SR leukemia
smiles,measurement,setting,value
Brc1ccc([I+]c2ccc(Br)cc2)cc1,GI50,[1],1.97 µM
same,TGI,[1],11.2 µM
same,GI50,[2],1.97 µM
same,TGI,[2],10.7 µM
same,GI50,[3],5.2 µM
same,TGI,[3],20.2 µM
same,GI50,[4],4.47 µM
same,TGI,[4],21 µM
same,GI50,[5],2.02 µM
same,TGI,[5],12.3 µM
same,GI50,[6],1.9 µM
same,TGI,[6],8.98 µM
same,GI50,[7],1.18 µM
same,TGI,[7],2.68 µM
same,GI50,[8],3.6 µM
same,TGI,[8],16.6 µM
same,GI50,[9],1.02 µM
same,TGI,[9],3.04 µM
same,GI50,[10],1.32 µM
same,TGI,[10],8.12 µM
same,GI50,[11],0.643 µM
same,TGI,[11],11.5 µM
same,GI50,[12],8.3 µM
same,TGI,[12],42.7 µM
same,GI50,[13],0.822 µM
same,TGI,[13],5.69 µM
same,GI50,[14],2.96 µM
same,TGI,[14],19.9 µM
same,GI50,[15],0.535 µM
same,TGI,[15],3.16 µM
same,GI50,[16],1.06 µM
same,TGI,[16],6.8 µM
same,GI50,[17],1.29 µM
same,TGI,[17],2.89 µM
same,GI50,[18],0.713 µM
same,TGI,[18],2.12 µM
same,GI50,[19],1.53 µM
same,TGI,[19],5.14 µM
same,GI50,[20],1.38 µM
same,TGI,[20],12.3 µM
same,GI50,[21],0.825 µM
same,TGI,[21],10.2 µM
same,GI50,[22],2.34 µM
same,TGI,[22],17 µM
same,GI50,[23],1.94 µM
same,TGI,[23],17 µM
same,GI50,[24],2.93 µM
same,TGI,[24],15.3 µM
same,GI50,[25],1.11 µM
same,TGI,[25],4.2 µM
same,GI50,[26],0.866 µM
same,TGI,[26],4.23 µM
same,GI50,[27],1.28 µM
same,TGI,[27],3.18 µM
same,GI50,[28],> 100 µM
same,TGI,[28],> 100 µM
same,GI50,[29],1.19 µM
same,TGI,[29],3.06 µM
same,GI50,[30],1.5 µM
same,TGI,[30],10.6 µM
same,GI50,[31],2.58 µM
same,TGI,[31],7.9 µM
same,GI50,[32],1.08 µM
same,TGI,[32],4.01 µM
same,GI50,[33],1.25 µM
same,TGI,[33],3.8 µM
same,GI50,[34],0.55 µM
same,TGI,[34],10.5 µM
same,GI50,[35],2.67 µM
same,TGI,[35],11.5 µM
same,GI50,[36],1.03 µM
same,TGI,[36],2.4 µM
same,GI50,[37],1.7 µM
same,TGI,[37],5.85 µM
same,GI50,[38],1.37 µM
same,TGI,[38],4.28 µM
same,GI50,[39],1.36 µM
same,TGI,[39],3.09 µM
same,GI50,[40],1.43 µM
same,TGI,[40],3.79 µM
same,GI50,[41],0.545 µM
same,TGI,[41],1.83 µM
same,GI50,[42],1.5 µM
same,TGI,[42],3.12 µM
same,GI50,[43],1.6 µM
same,TGI,[43],4.26 µM
same,GI50,[44],1.38 µM
same,TGI,[44],2.76 µM
same,GI50,[45],1.6 µM
same,TGI,[45],8.03 µM
same,GI50,[46],0.992 µM
same,TGI,[46],4.31 µM
same,GI50,[47],1.78 µM
same,TGI,[47],11 µM
same,GI50,[48],1.97 µM
same,TGI,[48],13.3 µM
same,GI50,[49],1.32 µM
same,TGI,[49],2.65 µM
same,GI50,[50],2.06 µM
same,TGI,[50],5.53 µM
same,GI50,[51],2.87 µM
same,TGI,[51],17.5 µM
same,GI50,[52],5.96 µM
same,TGI,[52],26.1 µM
O=C1c2ccccc2-c2nnc(-c3ccccc3)cc21,TGI,[1],> 10 µM
same,TGI,[3],> 10 µM
same,TGI,[4],> 10 µM
same,TGI,[6],> 10 µM
same,TGI,[53],> 10 µM
same,TGI,[7],> 10 µM
same,TGI,[54],> 10 µM
same,TGI,[55],> 10 µM
same,TGI,[16],> 10 µM
same,TGI,[56],> 10 µM
same,TGI,[19],> 10 µM
same,TGI,[20],> 10 µM
same,TGI,[21],> 10 µM
same,TGI,[23],> 10 µM
same,TGI,[57],> 10 µM
same,TGI,[25],> 10 µM
same,TGI,[26],> 10 µM
same,TGI,[28],> 10 µM
same,TGI,[30],> 10 µM
same,TGI,[31],> 10 µM
same,TGI,[34],> 10 µM
same,TGI,[35],> 10 µM
same,TGI,[36],> 10 µM
same,TGI,[39],> 10 µM
same,TGI,[40],> 10 µM
same,TGI,[41],> 10 µM
same,TGI,[42],> 10 µM
same,TGI,[45],> 10 µM
same,TGI,[58],> 10 µM
same,TGI,[46],> 10 µM
same,TGI,[47],> 10 µM
same,TGI,[49],> 10 µM
same,TGI,[51],> 10 µM
CCCCC(=O)N/N=C/c1cc(I)cc(I)c1O,GI50,[1],3.39 µM
same,TGI,[1],20.6 µM
same,GI50,[2],13.8 µM
same,TGI,[2],44.2 µM
same,GI50,[3],3.63 µM
same,TGI,[3],22.4 µM
same,GI50,[4],2.4 µM
same,TGI,[4],13.4 µM
same,GI50,[5],4.48 µM
same,TGI,[5],29.5 µM
same,GI50,[6],1.58 µM
same,TGI,[6],10.5 µM
same,GI50,[53],1.23 µM
same,TGI,[53],12.5 µM
same,GI50,[7],3.59 µM
same,TGI,[7],26.9 µM
same,GI50,[8],4.24 µM
same,TGI,[8],31 µM
same,GI50,[10],11.1 µM
same,TGI,[10],> 100 µM
same,GI50,[11],3.63 µM
same,TGI,[11],21.9 µM
same,GI50,[12],0.897 µM
same,TGI,[12],> 100 µM
same,GI50,[54],2.49 µM
same,TGI,[54],7.27 µM
same,GI50,[55],3.67 µM
same,TGI,[55],19.8 µM
same,GI50,[14],7.92 µM
same,TGI,[14],54.4 µM
same,GI50,[15],8.46 µM
same,TGI,[15],29.4 µM
same,GI50,[16],2.32 µM
same,TGI,[16],17.2 µM
same,GI50,[56],2.99 µM
same,TGI,[56],15.9 µM
same,GI50,[17],3.74 µM
same,TGI,[17],53.8 µM
same,GI50,[18],2.62 µM
same,TGI,[18],13.4 µM
same,GI50,[19],2.7 µM
same,TGI,[19],14.8 µM
same,GI50,[21],2.72 µM
same,TGI,[21],14.6 µM
same,GI50,[22],2.73 µM
same,TGI,[22],29.9 µM
same,GI50,[23],5.54 µM
same,TGI,[23],23.9 µM
same,GI50,[57],2.39 µM
same,TGI,[57],13 µM
same,GI50,[24],5.93 µM
same,TGI,[24],36.7 µM
same,GI50,[26],2.25 µM
same,TGI,[26],15.5 µM
same,GI50,[27],2.91 µM
same,TGI,[27],17.5 µM
same,GI50,[28],2.58 µM
same,TGI,[28],20.1 µM
same,GI50,[29],2.9 µM
same,TGI,[29],16.9 µM
same,GI50,[30],0.918 µM
same,TGI,[30],12.7 µM
same,GI50,[31],12.6 µM
same,TGI,[31],> 100 µM
same,GI50,[32],2.26 µM
same,TGI,[32],13.3 µM
same,GI50,[33],3.35 µM
same,TGI,[33],20.9 µM
same,GI50,[34],3.95 µM
same,TGI,[34],30.1 µM
same,GI50,[35],5.39 µM
same,TGI,[35],27.2 µM
same,GI50,[36],2.15 µM
same,TGI,[36],21.6 µM
same,GI50,[37],2.45 µM
same,TGI,[37],12.9 µM
same,GI50,[38],2.99 µM
same,TGI,[38],12.8 µM
same,GI50,[39],3.22 µM
same,TGI,[39],14.4 µM
same,GI50,[40],2.85 µM
same,TGI,[40],17.3 µM
same,GI50,[41],3.22 µM
same,TGI,[41],15.3 µM
same,GI50,[42],3.4 µM
same,TGI,[42],20.7 µM
same,GI50,[43],3.77 µM
same,TGI,[43],26.1 µM
same,GI50,[44],3.43 µM
same,TGI,[44],35.6 µM
same,GI50,[45],6.03 µM
same,TGI,[45],26.5 µM
same,GI50,[58],1.92 µM
same,TGI,[58],14.3 µM
same,GI50,[46],3.91 µM
same,TGI,[46],> 100 µM
same,GI50,[49],1.99 µM
same,TGI,[49],16.1 µM
same,GI50,[50],2.56 µM
same,TGI,[50],10.4 µM
same,GI50,[51],2.24 µM
same,TGI,[51],8.33 µM
same,GI50,[52],1.28 µM
same,TGI,[52],11.1 µM

# Reference: PubChem BioAssay (NCI)
